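Results reflect a 48-hour exposure of cells in 96-well plates to compound at five concentrations. GI50 marks 50% less growth. TGI: total growth inhibition.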
How the values were obtained:
Assay in all cases: NCI anticancer screen, dose series, 48 h
CCRF-CEM leukemia = system: CCRF-CEM leukemia
TK-10 renal = system: TK-10 renal
MDA-MB-435 = system: MDA-MB-435
IGROV1 ovarian = system: IGROV1 ovarian
K-562 leukemia = system: K-562 leukemia
OVCAR-8 ovarian = system: OVCAR-8 ovarian
NCI-H522 lung = system: NCI-H522 lung
SW-620 colon = system: SW-620 colon
KM12 colon = system: KM12 colon
PC-3 prostate = system: PC-3 prostate

Structure (SMILES)	TGI (CCRF-CEM leukemia) [µM]	TGI (TK-10 renal) [µM]	TGI (MDA-MB-435) [µM]	TGI (IGROV1 ovarian) [µM]	TGI (K-562 leukemia) [µM]	TGI (OVCAR-8 ovarian) [µM]	TGI (NCI-H522 lung) [µM]	TGI (SW-620 colon) [µM]	TGI (KM12 colon) [µM]	TGI (PC-3 prostate) [µM]	GI50 (CCRF-CEM leukemia) [µM]	GI50 (TK-10 renal) [µM]	GI50 (MDA-MB-435) [µM]	GI50 (IGROV1 ovarian) [µM]	GI50 (K-562 leukemia) [µM]	GI50 (OVCAR-8 ovarian) [µM]	GI50 (NCI-H522 lung) [µM]	GI50 (SW-620 colon) [µM]	GI50 (KM12 colon) [µM]	GI50 (PC-3 prostate) [µM]
O=C1CCCCN1C(=O)c1ccc([N+](=O)[O-])cc1	> 100	> 100	> 100	> 100	> 100	> 100	> 100	> 100	> 100	> 100										
O=c1[nH]c(=O)n(COCc2ccccc2)c2ccccc12	> 100	> 100	> 100	> 100	> 100	> 100		> 100	> 100	> 100										
COC12C=CC(CC1)C(C)(C)C2OS(C)(=O)=O (centres undefined)	> 100	> 100	> 100	> 100	> 100	> 100	> 100	> 100	> 100	> 100										
Nc1ccccc1OCCCOc1ccccc1N	> 100	> 100	> 100	> 100	> 100	> 100	> 100	> 100	> 100	> 100										
CCN(CC)C1Oc2cc3c(cc2C(c2cccc(OC)c2O)C1C)OCO3 (centres undefined)	16.3	> 100	4.96	> 56	> 100	> 80.8	7.3	35.4	16.6	> 35.8										
CC(=O)N1C(Nc2cccc3nc(C)ccc23)CCN1c1ccccc1 (centres undefined)	> 10	> 10	> 10	> 10	> 10	> 10	> 10	> 10		> 10										
O=C1C=C(O)c2c(O)ccc(O)c2C1=O	> 100	> 100	> 100	> 100	> 100	> 100	> 100	> 100	> 100	> 100										
CS(=O)(=O)OCC1CCCCCCCCCCC12SCCCS2 (centres undefined)	> 100	> 100	> 100	> 100	> 100	> 100	> 100	> 100	> 100	> 100										
CC(=O)O[C@H]1C[C@](C)(O)[C@@]23CC([C@@H](OC(=O)C(C)(C)O)[C@@H](OC(C)=O)C2(COC(=O)c2ccccc2)[C@H]1OC(C)=O)C(C)(C)O3 (some centres undefined)	> 100	> 100	> 100	> 100	> 100	> 100	> 100	> 100	> 100	> 100										
CC1C(C#N)(C#N)C(C#N)=C(N)C1(C)[N+](=O)[O-] (centres undefined)	> 100	> 100	> 100	> 100	> 100	> 100	> 100	> 100	> 100	> 100										
C[C@]12CC[C@H](O)CC1=CC[C@@H]1[C@@H]2CC[C@]2(C)C(=O)/C(=C/c3ccc([N+](=O)[O-])cc3)C[C@@H]12	> 100		> 100	21.8	> 100	12.3	30.6	> 100	> 100	31										
CC1CCOc2ccc(cc2)C=Nc2ccc(cc2)-c2ccc(cc2)N=Cc2ccc(cc2)OCC1 (centres undefined)	> 100	> 100	> 100	> 100	> 100	> 100	> 100	> 100	> 100	> 100										
Cn1c(COC(=O)NC2CCCCC2)c(COC(=O)NC2CCCCC2)c2ccc3cc(C=O)ccc3c21	> 100	> 100	> 100	> 100	> 100	> 100		> 100	> 100	> 100										
Cc1cn([C@@H]2C[C@H](CO)[C@@H]2O)c(=O)[nH]c1=O	> 100	> 100	> 100	> 100	> 100	> 100	> 100	> 100	> 100	> 100										
COc1cc(/C(=C2/O[C@@H]([C@H]3COC(C)(C)O3)[C@H]3OC(C)(C)O[C@@H]23)c2ccc3c(c2)OCO3)cc(OC)c1OC	> 25	> 25	> 25	> 25	> 25	> 25	> 25	> 25	> 25	> 25	> 25	> 25	> 25	> 25	> 25	> 25	> 25	> 25	> 25	> 25
O=C1CC(C(COCc2ccccc2)OCc2ccccc2)CC(=O)N1 (centres undefined)	> 100	> 100	> 100	> 100	> 100	> 100	> 100	> 100	> 100	> 100										
O=C1c2cccnc2-c2nccc3c2c1nc1ccc(Br)cc13	0.133	0.749	0.257	0.143	0.331	0.223	0.128	0.17	0.207	0.234										
C1=CN2C[n+]3ccc4ccccc4c3N=C2c2ccccc21	23.7	43	7.24	20.2	12.5	24.9	5.09	34.2	10.7	31.1										
C[N+]1([O-])[C@H]2CC(OC(=O)[C@H](CO)c3ccccc3)C[C@H]1[C@H]1O[C@H]12 (some centres undefined)	> 100	> 100	> 100	> 100	> 100	> 100	> 100	> 100	> 100	> 100										
CO[C@]12CC(=O)C3(C(C[C@H]4CC5CC[C@H]6C[C@@H](OC(C)=O)CC[C@]6(OC(C)=O)C5C[C@@]43C)C1)C1C[C@H]3[C@@H]4CC[C@H]5C[C@@H](OC(C)=O)CC[C@]5(OC(C)=O)[C@H]4CC[C@]3(C)C12 (some centres undefined)	> 100	> 100	> 100	> 100	> 100	> 100		> 100	> 100	> 100										
N#Cc1ccc2[nH]c3c(c2c1)CC(=O)Nc1ccccc1-3	> 100	> 100	> 100	> 100	> 100	> 100	> 100	> 100		> 100										
